The assay has as its system P388 leukemia ip, CD2F1 mice, survival T/C. Nature of the assay: NCI In Vivo Anticancer Drug Screen. Data for tumor model P388 Leukemia (intraperitoneal) in CD2F1 (CDF1) mice. To be noted: endpoint: median survival time, higher = longer survival. In a few lines:
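Mice carrying the transplanted tumor received test compound or vehicle. Survival was recorded in each group, and the value is the treated-group measurement divided by that of the vehicle-treated control group.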

Where [1] appears, read: dose: 25.0 mg/kg/injection, schedule: Q01DX009 (ip), vehicle: Klucel (hydroxypropylcellulose) (HPC).
Where [2] appears, read: dose: 50.0 mg/kg/injection, schedule: Q01DX009 (ip), vehicle: Klucel (hydroxypropylcellulose) (HPC).
Where [3] appears, read: dose: 100.0 mg/kg/injection, schedule: Q01DX009 (ip), vehicle: Klucel (hydroxypropylcellulose) (HPC).
Setting [4] is: dose: 200.0 mg/kg/injection, schedule: Q01DX009 (ip), vehicle: Klucel (hydroxypropylcellulose) (HPC).
The mark [5] stands for this setting: dose: 50.0 mg/kg/injection, schedule: Q01DX005 (ip), vehicle: saline with Tween-80.
The mark [6] stands for this setting: dose: 100.0 mg/kg/injection, schedule: Q01DX005 (ip), vehicle: saline with Tween-80.
Where [7] appears, read: dose: 200.0 mg/kg/injection, schedule: Q01DX005 (ip), vehicle: saline with Tween-80.
Where [8] appears, read: dose: 25.0 mg/kg/injection, schedule: Q01DX005 (ip), vehicle: saline with Tween-80.
Setting [9] is: dose: 60.0 mg/kg/injection, schedule: Q01DX005 (ip), vehicle: saline.
[10] abbreviates: dose: 120.0 mg/kg/injection, schedule: Q01DX005 (ip), vehicle: saline.
Where [11] appears, read: dose: 240.0 mg/kg/injection, schedule: Q01DX005 (ip), vehicle: saline.
[12] abbreviates: dose: 50.0 mg/kg/injection, schedule: Q01DX005 (ip), vehicle: Klucel (hydroxypropylcellulose) (HPC).
Where [13] appears, read: dose: 100.0 mg/kg/injection, schedule: Q01DX005 (ip), vehicle: Klucel (hydroxypropylcellulose) (HPC).
Setting [14] is: dose: 240.0 mg/kg/injection, schedule: Q01DX005 (ip), vehicle: saline with Tween-80.
Where [15] appears, read: dose: 12.5 mg/kg/injection, schedule: Q01DX005 (ip), vehicle: saline with Tween-80.

Several values for one entry are separate records, joined by “and”; a condition that tells them apart may be missing. Identical values can stand only once. Inconclusive results and toxic doses are left out.

As to `Nc1ccccc1-c1nc2ccncc2[nH]1`, the T/C runs as follows: under setting [1], 102 % of control; under setting [2], 105 % of control; under setting [3], 101 % of control; under setting [4], 100 % of control.
As to `O=C1c2cccc3cccc(c23)C(=O)N1CCO`, the T/C is, setting by setting: under setting [5], 104 % of control; under setting [6], 96 % of control; under setting [7], 100 % of control.
Turning to `Nc1nc(=S)c2ncn(C3OC(CO)C(O)C3O)c2[nH]1` (stereo unspecified), the T/C (dose: 2.0 mg/kg/injection, schedule: Q01DX010 (ip), vehicle: saline) was 168 % of control; the T/C (dose: 8.0 mg/kg/injection, schedule: Q01DX010 (ip), vehicle: saline) was 118 % of control; the T/C under setting [8] is 104 % of control; the T/C under setting [5] is 120 % of control; the T/C (dose: 100.0 mg/kg/injection, schedule: Q04DX003 (ip), vehicle: saline sonified) is 122 % of control; the T/C (dose: 132.0 mg/kg/injection, schedule: Q04DX003 (ip), vehicle: saline with Tween-80) was 117 % of control. For the same compound, the T/C runs as follows: under setting [7], 150 % of control and 158 % of control; (dose: 400.0 mg/kg/injection, schedule: Q04DX003 (ip), vehicle: saline sonified) 86 % of control.
For the compound `O=C1c2ccccc2SC[C@@H]2CCCN12`, the T/C was 101 % of control under setting [9], 99 % of control under setting [10] and 99 % of control under setting [11].
Turning to `CC(=O)NC(C=O)C(O)C(O)C(O)C(=O)O` (stereo unspecified), the T/C under setting [1] is 107 % of control, the T/C under setting [2] was 100 % of control and the T/C under setting [3] was 107 % of control.
For `CC1=NN(c2cccc(C(F)(F)F)c2)C(=O)C1`, the T/C under setting [1] is 100 % of control, the T/C under setting [2] is 106 % of control and the T/C under setting [3] is 102 % of control.
Take `O=C(CN1CCNCC1)N1CCCC1`: the T/C is 106 % of control under setting [12]; 97 % of control under setting [13]; 98 % of control (dose: 200.0 mg/kg/injection, schedule: Q01DX005 (ip), vehicle: Klucel (hydroxypropylcellulose) (HPC)).
Regarding `COc1cc2cc3cc(-c4ccc(Cl)cc4)c(N4CCCCC4)nc3nc2cc1OC`, the T/C by setting is: (dose: 3.75 mg/kg/injection, schedule: Q01DX005 (ip), vehicle: saline with Tween-80) 92 % of control; (dose: 7.5 mg/kg/injection, schedule: Q01DX005 (ip), vehicle: saline with Tween-80) 87 % of control; (dose: 30.0 mg/kg/injection, schedule: Q01DX005 (ip), vehicle: saline with Tween-80) 86 % of control; under setting [14], 91 % of control.
Take `O=C(O)CS(=O)(=O)N1CCOCC1`: the T/C under setting [12] is 102 % of control and the T/C under setting [13] is 94 % of control.
For the compound `CCC12CCCN3CCc4c(n(c5ccc(Br)cc45)C(=O)CC1)C32` (stereo unspecified), the T/C was 99 % of control under setting [15]; 90 % of control under setting [8]; 88 % of control and 91 % of control under setting [5].
Regarding `COc1cc(C2c3cc4c(cc3OC3(O)COC(=O)C23)OCO4)cc(OC)c1OC` (stereo unspecified), the T/C (dose: 60.0 mg/kg/injection, schedule: Q01DX005 (ip), vehicle: saline with Tween-80) was 88 % of control; the T/C (dose: 120.0 mg/kg/injection, schedule: Q01DX005 (ip), vehicle: saline with Tween-80) was 91 % of control; the T/C under setting [14] was 86 % of control.
For `N#CC1C(=O)NC(=O)C(C#N)C1c1c(Cl)cccc1Cl` (stereo unspecified), the T/C by setting is: under setting [2], 101 % of control; under setting [3], 99 % of control; under setting [4], 99 % of control.
As to `O=C1/C(=C/c2ccccc2O)SC(=S)N1C1CC1`, the T/C (dose: 50.0 mg/kg/injection, schedule: Q01DX009 (ip), vehicle: saline with Tween-80) is 100 % of control; the T/C (dose: 100.0 mg/kg/injection, schedule: Q01DX009 (ip), vehicle: saline with Tween-80) is 90 % of control; the T/C (dose: 200.0 mg/kg/injection, schedule: Q01DX009 (ip), vehicle: saline with Tween-80) was 95 % of control.
As for `CC(=O)c1cc(C)oc1C`, the T/C runs as follows: (dose: 25.0 mg/kg/injection, schedule: Q01DX009 (ip), vehicle: saline) 100 % of control; (dose: 50.0 mg/kg/injection, schedule: Q01DX009 (ip), vehicle: saline) 100 % of control and 111 % of control and 112 % of control; (dose: 100.0 mg/kg/injection, schedule: Q01DX009 (ip), vehicle: saline) 109 % of control and 111 % of control and 112 % of control; (dose: 400.0 mg/kg/injection, schedule: Q01DX009 (ip), vehicle: saline) 116 % of control.
For `COc1ccc(CC2=CC(=O)C(C)=CC2=O)cc1`, the T/C reads like this: (dose: 6.25 mg/kg/injection, schedule: Q01DX005 (ip), vehicle: saline with Tween-80) 98 % of control; under setting [15], 91 % of control; under setting [8], 97 % of control.
For `CN(C)C(=S)Oc1cc(-c2c(OC(=S)N(C)C)ccc3ccccc23)c2ccccc2c1`, the T/C (dose: 100.0 mg/kg/injection, schedule: Q04DX002 (ip), vehicle: saline with Tween-80) is 105 % of control; the T/C (dose: 200.0 mg/kg/injection, schedule: Q04DX002 (ip), vehicle: saline with Tween-80) is 102 % of control; the T/C (dose: 400.0 mg/kg/injection, schedule: Q04DX002 (ip), vehicle: saline with Tween-80) is 96 % of control.
With `COC(=O)COC(=O)C1C(C(N)=O)N(CC(=O)OC)CCN1CC(=O)OC` (stereo unspecified), the T/C was 103 % of control under setting [5], 103 % of control under setting [6] and 103 % of control under setting [7].
In the case of `Nc1ccccc1/C=C/c1ccnc2ccccc12`, the T/C was 101 % of control and 96 % of control (dose: 12.5 mg/kg/injection, schedule: Q01DX001 (ip), vehicle: Klucel (hydroxypropylcellulose) (HPC)); 100 % of control and 89 % of control (dose: 25.0 mg/kg/injection, schedule: Q01DX001 (ip), vehicle: Klucel (hydroxypropylcellulose) (HPC)); 91 % of control and 97 % of control (dose: 50.0 mg/kg/injection, schedule: Q01DX001 (ip), vehicle: Klucel (hydroxypropylcellulose) (HPC)); 87 % of control and 94 % of control (dose: 100.0 mg/kg/injection, schedule: Q01DX001 (ip), vehicle: Klucel (hydroxypropylcellulose) (HPC)).
Turning to `O=C1NCC(=O)N2CCCC12` (stereo unspecified), the T/C is 99 % of control under setting [9], 100 % of control under setting [10] and 107 % of control under setting [11].
For `CC(=O)/C(=C\c1cccs1)C(=O)CCN(C)C`, the T/C is, setting by setting: under setting [9], 106 % of control and 111 % of control; under setting [10], 113 % of control and 122 % of control; under setting [11], 91 % of control.
Turning to `COC(=O)CCn1nc(-c2ccccc2)c(-c2ccccc2)c(S(C)(=O)=O)c1=O`, the T/C is, setting by setting: (dose: 25.0 mg/kg/injection, schedule: Q04DX002 (ip), vehicle: distilled water + Tween-80) 95 % of control; (dose: 50.0 mg/kg/injection, schedule: Q04DX002 (ip), vehicle: distilled water + Tween-80) 92 % of control; (dose: 200.0 mg/kg/injection, schedule: Q04DX002 (ip), vehicle: distilled water + Tween-80) 90 % of control.

Source of the values: PubChem BioAssay AID330 (DTP/NCI, 2004).
